From ChEMBL document CHEMBL1201862, “PubChem BioAssay data set” (2004)
Active and inactive are the calls of the source. Cut-off read from the data, not from the text of the source, for most assays here: actives have a measured EC50 and inactives only a lower limit.

Experiments:
[1] = test system: Streptococcus sp. 'group A'; experiment: growth inhibition of control SK(-) GAS strain, dose response, counter-screen for streptokinase expression inhibitor project, luminescence, kanamycin, BacTiterGlo, confirmation (AID 1900); type: functional, organism-based
Streptokinase A = biological target: T1, Streptokinase A (Streptococcus pyogenes serotype M1, UniProt P10520); experiment: S. pyogenes streptokinase expression inhibitors, potency, dose response, plasminogen activation absorbance, OD405 (AID 1914); type: functional, Streptococcus pyogenes M1 GAS;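 note: secreted streptokinase activity via plasminogen activation per viability signal from cell pellet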
T1 sequence (P10520 whole entry): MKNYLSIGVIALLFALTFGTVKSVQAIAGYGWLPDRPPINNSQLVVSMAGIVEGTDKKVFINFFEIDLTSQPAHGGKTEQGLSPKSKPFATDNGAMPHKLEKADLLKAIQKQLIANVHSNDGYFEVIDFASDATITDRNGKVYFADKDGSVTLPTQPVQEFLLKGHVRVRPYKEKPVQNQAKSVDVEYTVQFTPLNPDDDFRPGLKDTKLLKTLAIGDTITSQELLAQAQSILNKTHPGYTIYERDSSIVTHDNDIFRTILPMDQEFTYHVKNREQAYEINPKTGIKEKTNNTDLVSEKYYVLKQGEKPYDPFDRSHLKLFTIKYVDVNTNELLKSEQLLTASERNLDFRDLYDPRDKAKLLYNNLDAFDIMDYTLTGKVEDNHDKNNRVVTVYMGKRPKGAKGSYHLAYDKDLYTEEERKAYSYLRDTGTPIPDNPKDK

Streptococcus = experiment: Group A Streptococcus viability loss, dose response, counter-screen for streptokinase expression inhibitor project, luminescence, BacTiterGlo (AID 1915); type: functional, organism-based;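 note: potency for reduction of bacterial viability or growth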
[2] = inhibitors of intracellular T. cruzi replication, confirmation, NIH3T3 host cells, beta-gal luminescence (AID 2044); type: functional, cell-based;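 note: intracellular parasites grown in NIH/3T3 mouse fibroblasts as host cells; luminescent beta-galactosidase reporter signal from transgenic T. cruzi replicating inside host cells; inhibitors lower the luminescence signal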
[3] = cytotoxicity toward NIH3T3 fibroblasts, dose response, counter-screen, cell-based, ATP luminescence, mouse fibroblasts (AID 2010); type: functional;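 note: cells exposed to compound for about 90 hours before reading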
Cytochrome P450 2C9 = Cytochrome P450 2C9 (Homo sapiens, UniProt P11712)
Cytochrome P450 3A4 = Cytochrome P450 3A4 (Homo sapiens, UniProt P08684);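 note: CYP3A4 tested as one member of a cytochrome P450 panel screen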
Cytochrome P450 1A2 = biological target: T2, Cytochrome P450 1A2 (Homo sapiens, UniProt P05177);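 note: PubChem cytochrome P450 panel assay, CYP1A2 panel member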
T2 sequence (P05177 whole entry): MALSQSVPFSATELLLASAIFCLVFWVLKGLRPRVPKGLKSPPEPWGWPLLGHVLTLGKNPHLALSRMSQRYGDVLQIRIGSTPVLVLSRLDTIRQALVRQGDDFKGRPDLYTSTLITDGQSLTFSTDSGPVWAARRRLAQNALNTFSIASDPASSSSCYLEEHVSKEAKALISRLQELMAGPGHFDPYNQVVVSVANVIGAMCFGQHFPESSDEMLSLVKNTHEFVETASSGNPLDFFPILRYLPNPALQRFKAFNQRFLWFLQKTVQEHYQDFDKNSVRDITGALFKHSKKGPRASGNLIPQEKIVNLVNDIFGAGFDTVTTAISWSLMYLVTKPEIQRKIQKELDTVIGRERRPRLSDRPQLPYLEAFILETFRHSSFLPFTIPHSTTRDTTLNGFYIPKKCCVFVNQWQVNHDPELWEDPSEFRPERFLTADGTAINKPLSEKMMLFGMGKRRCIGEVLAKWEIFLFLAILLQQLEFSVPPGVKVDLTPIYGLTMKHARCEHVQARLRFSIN

Chain of Cytochrome P450 2C9 (P11712 whole entry): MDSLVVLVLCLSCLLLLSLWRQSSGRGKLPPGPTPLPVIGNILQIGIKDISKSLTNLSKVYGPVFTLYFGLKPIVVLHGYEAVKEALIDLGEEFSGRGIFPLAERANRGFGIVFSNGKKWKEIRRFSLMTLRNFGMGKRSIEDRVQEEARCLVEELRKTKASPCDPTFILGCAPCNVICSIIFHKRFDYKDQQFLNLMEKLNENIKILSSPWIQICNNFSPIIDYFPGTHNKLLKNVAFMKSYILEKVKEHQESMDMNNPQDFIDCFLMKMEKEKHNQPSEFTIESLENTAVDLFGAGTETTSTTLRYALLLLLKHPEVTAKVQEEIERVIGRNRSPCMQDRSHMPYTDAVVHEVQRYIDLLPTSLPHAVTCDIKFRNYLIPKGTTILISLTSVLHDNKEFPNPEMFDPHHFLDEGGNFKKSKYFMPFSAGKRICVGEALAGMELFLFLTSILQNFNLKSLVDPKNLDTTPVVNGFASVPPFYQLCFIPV
Chain of Cytochrome P450 3A4 (P08684 whole entry): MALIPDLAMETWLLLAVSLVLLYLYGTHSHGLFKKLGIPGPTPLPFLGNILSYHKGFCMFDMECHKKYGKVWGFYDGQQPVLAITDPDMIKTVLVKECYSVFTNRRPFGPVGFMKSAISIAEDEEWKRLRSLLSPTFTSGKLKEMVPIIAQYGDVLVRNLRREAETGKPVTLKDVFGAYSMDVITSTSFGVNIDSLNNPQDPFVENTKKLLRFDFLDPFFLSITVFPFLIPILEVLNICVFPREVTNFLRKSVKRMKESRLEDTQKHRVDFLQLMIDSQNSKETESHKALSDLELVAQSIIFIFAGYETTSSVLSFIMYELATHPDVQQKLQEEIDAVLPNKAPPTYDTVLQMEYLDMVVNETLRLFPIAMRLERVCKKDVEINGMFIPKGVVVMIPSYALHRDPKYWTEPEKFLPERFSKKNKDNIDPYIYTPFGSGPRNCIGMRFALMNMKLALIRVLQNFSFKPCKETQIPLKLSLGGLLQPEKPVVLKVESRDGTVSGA

With `O=C(Nc1nnc(C2=COCCO2)o1)c1ccc([N+](=O)[O-])s1` the EC50 [1] was 18.1 µM (active), the EC50 (Streptokinase A) was > 150 µM (not active) and the EC50 (Streptococcus) was > 150 µM (not active).
With `CCCCNc1c(-c2ccc(SC3CCCCC3)c(OC)c2)nc2ccc(Cl)cn12` the EC50 [2] was 1.43 µM (active) and the EC50 [3] was > 60 µM (not active).
In the case of `Cc1nc2cnc(N(C)C)nc2n(C2CC2)c1=O`, the AC50 (Cytochrome P450 2C9) was 15.8 µM (inconclusive).
For `Cc1ccc2c(c1)N(CCC(=O)NCc1ccc3c(c1)OCO3)C(=O)CO2`, the AC50 (Cytochrome P450 2C9) was 0.00562 µM (inconclusive).
In the case of `C/C(=C\c1ccc(Cl)cc1)C(C)(C)C(=O)O`, the AC50 (Cytochrome P450 2C9) was 3.16 µM (inconclusive).
In the case of `Cc1ccc(NC(=S)N(CCCN2CCOCC2)Cc2cccnc2)cc1C`, the EC50 [2] was 1.19 µM (active) and the EC50 [3] was 10.9 µM (active).
In the case of `CSc1nsc(SC)c1NC(=O)Nc1ccccn1`, the AC50 (Cytochrome P450 2C9) was 22.4 µM (inconclusive).
For `COc1ccc(NC(=O)N2CC[C@@]3(CCCN(C(=O)c4csnn4)C3)C2)cc1`, the AC50 (Cytochrome P450 3A4) was 31.6 µM (inconclusive).
With `COC(=O)C/C=C\[C@@H](C)[C@@H](/C=N\OCC[C@H]1C=C[C@H](OC(C)=O)[C@@H](COC(C)=O)O1)NS(=O)(=O)c1ccc(C)cc1` the AC50 (Cytochrome P450 2C9) was 5.01 µM (inconclusive).
With `Cc1ccc(CN2CC34C=CC(O3)C(C(=O)NCc3ccco3)C4C2=O)cc1` (stereo not drawn) the AC50 (Cytochrome P450 1A2) was 20 µM (inconclusive).
For `c1ccc2c(NC3C4CC5CC(C4)CC3C5)nc(N3CCOCC3)nc2c1` (stereo not drawn), the EC50 [2] was 1.39 µM (active) and the EC50 [3] was > 30 µM (not active).
With `CCc1ccc(NC(=O)CSc2nc3cc(C(=O)OC)ccc3c(=O)n2Cc2ccco2)cc1` the AC50 (Cytochrome P450 3A4) was 3.98 µM (inconclusive) and the AC50 (Cytochrome P450 2C9) was 28.2 µM (inconclusive).
In the case of `COc1ccc(OC)c(NC(=O)Cn2cccc2)c1`, the AC50 (Cytochrome P450 3A4) was 15.8 µM (inconclusive) and the AC50 (Cytochrome P450 2C9) was 31.6 µM (inconclusive).
In the case of `COc1ccc(CC(=O)Nc2nc(-c3ccncc3)cs2)cc1`, the EC50 [2] was 2.74 µM (active) and the EC50 [3] was > 60 µM (not active).
In the case of `O=C(Nc1ccccc1)c1ccccc1CC[N+](=O)[O-]`, the AC50 (Cytochrome P450 3A4) was 7.94 µM (inconclusive).
For `N#CCCn1c(=O)c(-c2cc(F)cc(F)c2)nc2cnc(N3CCOCC3)nc21`, the AC50 (Cytochrome P450 1A2) was 3.16 µM (inconclusive) and the AC50 (Cytochrome P450 3A4) was 20 µM (inconclusive).
With `Cc1nn(Cc2cccc(Oc3ccccc3)c2)c(C)c1NC(=O)NC12CC3CC(CC(C3)C1)C2` the EC50 [2] was 1.29 µM (active) and the EC50 [3] was > 60 µM (not active).
In the case of `Cc1ccc(S(=O)(=O)Nc2ccccc2C(=O)c2ccc(C)c(C)c2)cc1`, the AC50 (Cytochrome P450 1A2) was 0.631 µM (inconclusive).
In the case of `CN(C)C=O.COCCn1c(SCc2nc(O)c3c(C)c(C(=O)OC)sc3n2)nc2ccccc21`, the AC50 (Cytochrome P450 1A2) was 25.1 µM (inconclusive), the EC50 [1] was 6.06 µM (active) and the EC50 (Streptokinase A) was > 150 µM (not active). For the same compound, the EC50 (Streptococcus) was 101 µM (active).
In the case of `O=C(c1ccncc1)N1CCC2(CC1)CCN(c1ncccn1)CC2`, the AC50 (Cytochrome P450 1A2) was 20 µM (inconclusive).
In the case of `CC(C)c1ccc2oc(-c3cc(N)ccc3O)nc2c1`, the EC50 [2] was 2.88 µM (active) and the EC50 [3] was 10.8 µM (active).
For `CCOC(=O)c1nn(-c2ccccc2)c(-c2ccccc2)c1C(=O)c1ccccc1`, the AC50 (Cytochrome P450 3A4) was 15.8 µM (inconclusive).
For `COc1ccc(O[C@H]2C=C[C@@H](c3ccccc3)O[C@@H]2CON=C(C)C)cc1`, the AC50 (Cytochrome P450 3A4) was 3.98 µM (inconclusive).
For `C[C@@H](C(=O)NCCF)[C@H]1C[C@]1(C)[C@H](NC(=O)OCc1ccccc1)c1ccccc1`, the AC50 (Cytochrome P450 1A2) was 15.8 µM (inconclusive) and the AC50 (Cytochrome P450 2C9) was 25.1 µM (inconclusive).
In the case of `CCOC(=O)c1cc2c(ccn2C)n1CC(=O)N1CCCC(C)C1` (stereo not drawn), the AC50 (Cytochrome P450 1A2) was 20 µM (inconclusive).
In the case of `CC(=O)OC[C@H]1O[C@@H](O/N=C(\C)CCN2CCc3nc(-c4ccccc4)c(-c4ccccc4)cc3C2)[C@H](OC(C)=O)[C@@H](OC(C)=O)[C@H]1OC(C)=O`, the AC50 (Cytochrome P450 3A4) was 5.01 µM (inconclusive).
For `Cc1cccc(NC(=O)Cn2cccc2)c1`, the AC50 (Cytochrome P450 3A4) was 22.4 µM (inconclusive).
With `Cc1cc(C)n2nc(-c3ccsc3-n3c(C)ccc3C)cc2n1` the EC50 [2] was 2.77 µM (active) and the EC50 [3] was > 60 µM (not active).
In the case of `Cc1cc(C)cc(Nc2c([N+](=O)[O-])nn(-c3ccc4c(c3)OCCO4)[n+]2[O-])c1`, the EC50 [2] was 0.16 µM (active) and the EC50 [3] was > 60 µM (not active).
With `Cc1ccc(S(=O)(=O)N[C@H]2COC(=O)[C@H](C)COC(=O)[C@H](C)NC(=O)C/C=C\[C@H]2C)cc1` the AC50 (Cytochrome P450 3A4) was 3.98 µM (inconclusive).
For `COc1ccc(/C=C/C(=O)Nc2cc(C)nn2-c2nc3ccccc3[nH]2)cc1`, the EC50 [2] was 1.71 µM (active) and the EC50 [3] was 9.28 µM (active).
In the case of `OC(COc1ccc(OCc2ccccc2)cc1)CN1CCCCC1` (stereo not drawn), the EC50 [2] was 21.4 µM (active) and the EC50 [3] was > 60 µM (not active).
For `O=[N+]([O-])c1ccc(S(=O)(=O)Nc2ccc(-c3ccc(N4CCCC4)nn3)cc2)cc1`, the EC50 [2] was 0.159 µM (active) and the EC50 [3] was > 60 µM (not active).
In the case of `COC(=O)C[C@@H]1O[C@H]1[C@H](C)[C@@H](OC)C(C)C`, the AC50 (Cytochrome P450 2C9) was 3.16 µM (inconclusive).
For `CN(C)C(=O)c1ccc(-c2cc(N(C)Cc3ccco3)ncn2)cc1`, the AC50 (Cytochrome P450 1A2) was 25.1 µM (inconclusive).
For `CCOc1ccc(CN2CCN(Cc3cnc(-c4ccccc4)s3)CC2CCO)cc1` (stereo not drawn), the EC50 [2] was 0.201 µM (active) and the EC50 [3] was > 60 µM (not active).
For `COc1ccc(-c2nc3cnc(N4CCN(C)CC4)nc3n(-c3ccc(OC)cc3)c2=O)cc1`, the AC50 (Cytochrome P450 1A2) was 15.8 µM (inconclusive) and the AC50 (Cytochrome P450 2C9) was 39.8 µM (inconclusive).
For `COc1ncc2nc(-c3cc(F)cc(F)c3)c(=O)n(-c3ccccc3)c2n1`, the AC50 (Cytochrome P450 1A2) was 1.26 µM (inconclusive).
With `O=c1c(-c2cc(F)cc(F)c2)nc2cnc(N3CCOCC3)nc2n1C1CC1` the AC50 (Cytochrome P450 1A2) was 1 µM (inconclusive).
With `Clc1ccc(CSc2nccn2Cc2ccccc2)cc1` the AC50 (Cytochrome P450 2C9) was 22.4 µM (inconclusive), the EC50 [1] was 33 µM (active) and the EC50 (Streptokinase A) was 24.2 µM (inconclusive). The EC50 (Streptococcus) was > 150 µM (not active).
In the case of `CC(=O)N1CCC[C@@]2(CCN(c3ccccc3)C2)C1`, the AC50 (Cytochrome P450 3A4) was 25.1 µM (inconclusive).
For `Cc1ccc(Cn2nnc3c(=O)[nH]c(C4CCN(S(=O)(=O)c5cc(C)ccc5C)CC4)nc32)cc1`, the EC50 (Streptokinase A) was 21.4 µM (active).
With `Cc1ccc(Cn2nnc3c(O)nc(C4CCN(S(=O)(=O)c5cc(C)ccc5C)CC4)nc32)cc1` the EC50 [1] was 9.94 µM (active) and the EC50 (Streptococcus) was 96 µM (active).
With `CCOc1ccc(C(F)(F)F)cc1NC(C)=O` the AC50 (Cytochrome P450 2C9) was 31.6 µM (inconclusive).
With `O=c1ccn([C@@H]2O[C@@H](COP(=O)(O)OP(=O)(O)O)[C@H](O)[C@@H]2O)c(=O)[nH]1` the AC50 (Cytochrome P450 3A4) was 0.794 µM (inconclusive).
For `COCCCNCCCOc1ccc(C(C)(C)c2ccccc2)cc1`, the EC50 [2] was 0.567 µM (active) and the EC50 [3] was > 60 µM (inconclusive).
With `CC(=O)N(CCCN(C)C)CCC(C)CCC=C(C)C` (stereo not drawn) the EC50 [2] was 0.324 µM (active) and the EC50 [3] was > 60 µM (not active).
In the case of `COc1ccc(-c2cc3nc[nH]c(=O)c3s2)cc1`, the EC50 (Streptokinase A) was > 150 µM (not active).
For `COc1ccc(-c2cc3ncnc(O)c3s2)cc1`, the EC50 [1] was 3.63 µM (active) and the EC50 (Streptococcus) was 17.8 µM (active).
For `O=C(NNC(=O)c1ccccc1)C(=O)N1CCCCC1`, the AC50 (Cytochrome P450 2C9) was 0.00562 µM (inconclusive).
With `CN(c1ccc(C(=O)NC2CC3CCC2C3)cc1)S(C)(=O)=O` (stereo not drawn) the AC50 (Cytochrome P450 3A4) was 15.8 µM (inconclusive).
In the case of `COc1cc(/C=N/N=c2\[nH]c3ccccc3s2)cc([N+](=O)[O-])c1O`, the EC50 (Streptokinase A) was > 150 µM (not active).
With `COc1cc(/C=N/Nc2nc3ccccc3s2)cc([N+](=O)[O-])c1O` the EC50 [1] was 9.74 µM (active) and the EC50 (Streptococcus) was > 150 µM (not active).
With `C/C(N)=C(/C#N)C(=O)CSc1nc(-c2ccccc2)c(-c2ccccc2)o1` the EC50 [2] was 1.43 µM (active) and the EC50 [3] was > 60 µM (not active).
For `C/C(Cn1cnc([N+](=O)[O-])n1)=N\NC(=O)c1ccccc1O`, the EC50 [2] was 1.73 µM (active) and the EC50 [3] was > 60 µM (not active).
For `CCOC(=O)/C(=N\Nc1ccc(Cl)cc1)c1csc(Nc2ccccc2)n1`, the EC50 [2] was 1.48 µM (active), the EC50 [1] was 6.05 µM (active) and the EC50 [3] was > 60 µM (not active). The EC50 (Streptokinase A) was 20.9 µM (active) and the EC50 (Streptococcus) was 37 µM (active).
For `Cc1ccccc1OCC(=O)N/N=C1\CCOc2c(C)cccc21`, the AC50 (Cytochrome P450 3A4) was 3.16 µM (inconclusive).
